From ChEMBL document CHEMBL1201862, “PubChem BioAssay data set” (2004)
Activity calls are given as the source filed them.

What was measured:
[1] = biological target: SWI/SNF-related matrix-associated actin-dependent regulator of chromatin subfamily A member 2 (Homo sapiens, UniProt P51531); assay: Luminescence-based cell-based high throughput dose response assay to identify activators of the function of SWI/SNF related, matrix associated, actin dependent regulator of chromatin, subfamily a, member 2 (SMARCA2, BRM).; assay type: functional
Chain of SWI/SNF-related matrix-associated actin-dependent regulator of chromatin subfamily A member 2 (P51531 whole entry): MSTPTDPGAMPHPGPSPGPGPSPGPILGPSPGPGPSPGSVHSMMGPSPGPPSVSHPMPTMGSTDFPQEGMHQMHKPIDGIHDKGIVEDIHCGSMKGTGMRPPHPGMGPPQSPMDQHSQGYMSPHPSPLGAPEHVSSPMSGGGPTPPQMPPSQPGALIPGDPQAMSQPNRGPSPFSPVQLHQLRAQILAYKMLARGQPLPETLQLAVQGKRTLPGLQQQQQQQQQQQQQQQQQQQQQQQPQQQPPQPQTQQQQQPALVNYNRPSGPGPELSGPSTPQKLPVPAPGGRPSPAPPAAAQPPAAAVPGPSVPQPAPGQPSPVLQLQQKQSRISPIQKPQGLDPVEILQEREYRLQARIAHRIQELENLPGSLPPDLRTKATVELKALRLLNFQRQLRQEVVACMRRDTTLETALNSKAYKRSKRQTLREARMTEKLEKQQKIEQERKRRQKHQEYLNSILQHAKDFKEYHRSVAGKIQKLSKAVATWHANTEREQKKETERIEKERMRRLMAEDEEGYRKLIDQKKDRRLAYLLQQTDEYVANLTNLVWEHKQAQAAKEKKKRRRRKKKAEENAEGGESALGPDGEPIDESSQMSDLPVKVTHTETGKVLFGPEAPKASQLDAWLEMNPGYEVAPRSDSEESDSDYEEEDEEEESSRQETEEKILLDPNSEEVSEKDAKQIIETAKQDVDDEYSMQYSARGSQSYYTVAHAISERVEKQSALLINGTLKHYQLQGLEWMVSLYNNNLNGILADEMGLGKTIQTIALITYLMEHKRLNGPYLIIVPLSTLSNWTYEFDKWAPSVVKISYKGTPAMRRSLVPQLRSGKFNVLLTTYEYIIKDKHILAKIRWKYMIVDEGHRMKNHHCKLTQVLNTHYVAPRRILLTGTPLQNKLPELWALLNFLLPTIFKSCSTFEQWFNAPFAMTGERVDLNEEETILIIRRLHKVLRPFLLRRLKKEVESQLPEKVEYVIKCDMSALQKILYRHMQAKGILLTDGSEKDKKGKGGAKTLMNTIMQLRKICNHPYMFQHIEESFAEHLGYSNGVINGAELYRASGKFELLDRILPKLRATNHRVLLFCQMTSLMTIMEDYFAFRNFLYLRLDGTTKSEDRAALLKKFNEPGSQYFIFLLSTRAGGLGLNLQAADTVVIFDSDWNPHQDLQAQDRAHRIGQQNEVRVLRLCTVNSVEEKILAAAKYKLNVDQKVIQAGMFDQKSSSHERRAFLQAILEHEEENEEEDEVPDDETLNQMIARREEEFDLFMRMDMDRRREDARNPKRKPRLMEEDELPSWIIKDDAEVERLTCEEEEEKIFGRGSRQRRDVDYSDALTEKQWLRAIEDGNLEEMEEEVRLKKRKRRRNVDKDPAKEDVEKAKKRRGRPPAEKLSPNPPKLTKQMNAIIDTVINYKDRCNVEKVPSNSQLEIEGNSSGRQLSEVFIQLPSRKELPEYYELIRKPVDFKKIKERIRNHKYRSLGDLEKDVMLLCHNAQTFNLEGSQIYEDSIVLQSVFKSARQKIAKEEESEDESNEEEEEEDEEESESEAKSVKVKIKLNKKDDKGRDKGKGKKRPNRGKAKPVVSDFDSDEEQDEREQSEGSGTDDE

[2] = Counterscreen for activators of the function of SWI/SNF related, matrix associated, actin dependent regulator of chromatin, subfamily a, member 2 (SMARCA2, BRM): Luminescence-based cell-based high throughput dose response assay to identify non-selective compounds using the VP16 reporter assay.; assay type: functional
[3] = biological target: Photoreceptor-specific nuclear receptor (Homo sapiens, UniProt Q9Y5X4); assay type: functional, cell-based;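 also: CHO-S cells with Gal4-NCOR and VP16-NR2E3 two-hybrid luciferase reporter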
Chain of Photoreceptor-specific nuclear receptor (Q9Y5X4 whole entry, the tested form may be a part): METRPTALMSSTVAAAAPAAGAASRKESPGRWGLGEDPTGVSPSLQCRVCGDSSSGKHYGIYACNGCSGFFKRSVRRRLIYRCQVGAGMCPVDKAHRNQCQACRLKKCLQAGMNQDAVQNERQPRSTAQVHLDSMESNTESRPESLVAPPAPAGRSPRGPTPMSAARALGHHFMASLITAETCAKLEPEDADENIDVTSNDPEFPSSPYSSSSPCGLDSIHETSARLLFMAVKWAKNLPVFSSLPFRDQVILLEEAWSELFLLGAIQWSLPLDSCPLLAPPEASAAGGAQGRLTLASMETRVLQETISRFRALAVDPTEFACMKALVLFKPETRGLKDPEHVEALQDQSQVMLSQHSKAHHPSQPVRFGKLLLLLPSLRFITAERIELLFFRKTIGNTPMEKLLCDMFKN

Insulin-degrading enzyme [4] = biological target: T1, Insulin-degrading enzyme (Homo sapiens, UniProt P14735); assay: activators of recombinant IDE enzyme, dose response, counter-screen for IDE activator project, biochemical, fluorescence polarization (AID 588681)
T1 sequence (P14735 whole entry): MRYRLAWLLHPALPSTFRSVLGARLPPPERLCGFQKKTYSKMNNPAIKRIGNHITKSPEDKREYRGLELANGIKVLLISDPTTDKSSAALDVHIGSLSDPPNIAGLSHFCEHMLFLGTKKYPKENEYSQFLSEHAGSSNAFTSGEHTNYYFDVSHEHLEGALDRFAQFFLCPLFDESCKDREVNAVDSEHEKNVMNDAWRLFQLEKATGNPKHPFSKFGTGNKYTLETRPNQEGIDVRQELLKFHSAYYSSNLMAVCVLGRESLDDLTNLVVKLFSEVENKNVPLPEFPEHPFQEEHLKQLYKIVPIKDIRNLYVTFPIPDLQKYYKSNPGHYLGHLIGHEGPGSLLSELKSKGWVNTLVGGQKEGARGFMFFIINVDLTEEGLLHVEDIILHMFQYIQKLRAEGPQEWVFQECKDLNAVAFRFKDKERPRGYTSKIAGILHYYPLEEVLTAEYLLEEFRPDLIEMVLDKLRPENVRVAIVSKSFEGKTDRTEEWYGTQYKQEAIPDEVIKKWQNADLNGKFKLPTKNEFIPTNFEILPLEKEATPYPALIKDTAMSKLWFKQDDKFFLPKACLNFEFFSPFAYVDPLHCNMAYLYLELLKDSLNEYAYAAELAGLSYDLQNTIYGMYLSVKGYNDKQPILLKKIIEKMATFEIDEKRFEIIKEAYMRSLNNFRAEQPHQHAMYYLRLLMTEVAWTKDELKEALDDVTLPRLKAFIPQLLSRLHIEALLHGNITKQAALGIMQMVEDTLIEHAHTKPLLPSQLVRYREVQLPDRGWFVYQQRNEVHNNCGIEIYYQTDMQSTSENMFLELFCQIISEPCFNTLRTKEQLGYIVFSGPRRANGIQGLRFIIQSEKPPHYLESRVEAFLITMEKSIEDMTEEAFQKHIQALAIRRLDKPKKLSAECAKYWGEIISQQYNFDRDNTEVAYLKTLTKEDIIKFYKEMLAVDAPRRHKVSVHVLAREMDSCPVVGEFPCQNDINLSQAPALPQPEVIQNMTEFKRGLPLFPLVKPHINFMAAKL

Insulin-degrading enzyme [5] = biological target: T1, Insulin-degrading enzyme; assay: activators of endogenous IDE in HEK cells, dose response, cell-based, fluorescence polarization (AID 588439); assay type: functional
HEK293 [6] = assay: optical interference in Abeta FP readout, dose response, artefact control for IDE activator project, biochemical, fluorescence polarization (AID 588442); assay type: functional, cell-based; settings: Homo sapiens
HEK293 [7] = assay: HEK cell cytotoxicity by LDH release, dose response, cytotoxicity control for IDE activator project, fluorescence, HEK cells (AID 588440); assay type: functional, cell-based; settings: Homo sapiens;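 also: cytotoxicity by LDH release measuring loss of membrane integrity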
[8] = biological target: Beta-2 adrenergic receptor (Homo sapiens, UniProt P07550); assay: beta2AR agonists driving receptor internalization, dose response, cell-based, FAP fluorogen, flow cytometry, cherry pick 1 (AID 588763); assay type: functional
Chain of Beta-2 adrenergic receptor (P07550 whole entry): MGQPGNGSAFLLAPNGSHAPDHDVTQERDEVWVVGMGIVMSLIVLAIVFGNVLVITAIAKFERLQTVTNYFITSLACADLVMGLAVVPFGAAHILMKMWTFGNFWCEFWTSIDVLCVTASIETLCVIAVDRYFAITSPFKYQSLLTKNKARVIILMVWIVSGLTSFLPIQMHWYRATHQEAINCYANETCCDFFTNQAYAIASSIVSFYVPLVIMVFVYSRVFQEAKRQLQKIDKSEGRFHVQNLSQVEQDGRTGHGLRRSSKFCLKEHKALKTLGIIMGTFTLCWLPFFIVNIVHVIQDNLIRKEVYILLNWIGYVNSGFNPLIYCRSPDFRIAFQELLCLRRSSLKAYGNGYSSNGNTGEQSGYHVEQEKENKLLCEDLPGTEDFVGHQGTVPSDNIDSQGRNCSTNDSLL

[9] = biological target: T2, Nuclear receptor subfamily 0 group B member 1 (Homo sapiens, UniProt P51843); assay: Luminescence-based cell-based high throughput dose response assay for inhibitors of the orphan nuclear receptor subfamily 0, group B, member 1 (DAX1; NR0B1). [Related pubchem assays (depositor defined):AID504766, AID504790]; assay type: functional
T2 sequence (P51843 whole entry): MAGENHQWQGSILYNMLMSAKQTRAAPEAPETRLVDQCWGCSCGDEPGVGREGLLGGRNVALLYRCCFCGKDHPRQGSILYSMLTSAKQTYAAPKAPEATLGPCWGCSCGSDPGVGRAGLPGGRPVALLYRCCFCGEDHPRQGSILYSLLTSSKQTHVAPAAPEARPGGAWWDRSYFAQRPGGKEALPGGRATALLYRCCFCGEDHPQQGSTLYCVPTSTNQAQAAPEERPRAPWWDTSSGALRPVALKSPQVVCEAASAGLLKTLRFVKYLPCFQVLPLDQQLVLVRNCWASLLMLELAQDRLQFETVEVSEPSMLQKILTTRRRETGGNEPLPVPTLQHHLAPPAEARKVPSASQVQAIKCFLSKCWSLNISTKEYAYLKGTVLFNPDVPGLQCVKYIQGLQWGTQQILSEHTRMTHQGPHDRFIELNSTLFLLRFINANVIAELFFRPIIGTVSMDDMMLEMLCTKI

[10] = HEp-2 cell cytotoxicity, dose response, cytotoxicity control for RSV inhibitor project, HTS (AID 2410); assay type: functional; settings: human respiratory syncytial virus
HEK293 [11] = assay: cells; assay type: functional, cell-based; settings: Homo sapiens
[12] = biological target: T3, Apoptotic protease-activating factor 1 (Homo sapiens, UniProt O14727); assay type: functional
T3 sequence (O14727 whole entry): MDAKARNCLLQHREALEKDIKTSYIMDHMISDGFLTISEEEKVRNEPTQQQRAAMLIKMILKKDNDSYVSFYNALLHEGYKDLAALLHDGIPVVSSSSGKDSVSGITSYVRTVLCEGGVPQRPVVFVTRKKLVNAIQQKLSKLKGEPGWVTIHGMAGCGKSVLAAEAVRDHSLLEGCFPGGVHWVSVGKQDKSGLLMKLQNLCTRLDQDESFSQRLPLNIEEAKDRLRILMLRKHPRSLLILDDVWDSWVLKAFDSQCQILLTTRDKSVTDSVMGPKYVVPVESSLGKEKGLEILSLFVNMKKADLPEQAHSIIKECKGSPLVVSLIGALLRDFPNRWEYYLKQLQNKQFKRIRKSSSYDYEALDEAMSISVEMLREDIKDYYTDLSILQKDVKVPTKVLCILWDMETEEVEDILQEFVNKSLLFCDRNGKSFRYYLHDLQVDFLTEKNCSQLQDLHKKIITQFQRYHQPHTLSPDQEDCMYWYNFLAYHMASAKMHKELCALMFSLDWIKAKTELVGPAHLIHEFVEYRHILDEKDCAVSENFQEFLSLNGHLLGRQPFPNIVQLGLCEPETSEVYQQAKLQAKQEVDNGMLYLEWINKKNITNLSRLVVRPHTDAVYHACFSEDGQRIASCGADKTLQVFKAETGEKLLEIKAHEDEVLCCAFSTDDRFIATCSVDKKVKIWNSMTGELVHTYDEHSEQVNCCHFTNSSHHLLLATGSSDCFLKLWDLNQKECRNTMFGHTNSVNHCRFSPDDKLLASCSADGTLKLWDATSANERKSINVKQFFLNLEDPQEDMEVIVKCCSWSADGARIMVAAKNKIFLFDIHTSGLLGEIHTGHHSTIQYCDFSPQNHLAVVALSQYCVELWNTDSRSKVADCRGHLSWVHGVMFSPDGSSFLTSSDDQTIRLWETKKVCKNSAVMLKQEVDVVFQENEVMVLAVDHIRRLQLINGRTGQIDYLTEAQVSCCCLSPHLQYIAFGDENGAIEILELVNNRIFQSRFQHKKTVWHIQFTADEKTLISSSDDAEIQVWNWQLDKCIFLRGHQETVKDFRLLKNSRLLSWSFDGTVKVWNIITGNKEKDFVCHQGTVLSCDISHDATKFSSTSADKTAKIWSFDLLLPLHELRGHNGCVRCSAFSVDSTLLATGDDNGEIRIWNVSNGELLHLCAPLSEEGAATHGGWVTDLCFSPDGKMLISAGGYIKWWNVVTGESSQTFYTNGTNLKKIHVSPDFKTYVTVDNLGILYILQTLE

For Cc1cccc(C(=O)N[C@H](C(=O)Nc2ncc(C)s2)C(C)C)c1, the EC50 [1] was > 91.1 µM (inactive), the EC50 [2] was > 91.1 µM (inactive) and the IC50 [3] was 0.0592 µM (active).
For Cc1ccc(S(=O)(=O)OCCC2=CC(=O)CCN2Cc2ccccc2)cc1, the EC50 (Insulin-degrading enzyme [4]) was > 54.7 µM (inactive), the EC50 (Insulin-degrading enzyme [5]) was > 54.7 µM (inactive) and the EC50 (HEK293 [6]) was > 55.9 µM (inactive). For the same compound, the IC50 (HEK293 [7]) was > 89.1 µM (inactive).
In the case of Cc1c(C(=O)N2CCc3ccccc3C2)oc2ccc(S(=O)(=O)N3CCCCCC3)cc12, the EC50 [8] is reported as 1.46 µM (active).
For N#C/C(=C/c1ccc(-c2cc([N+](=O)[O-])ccc2Cl)o1)C(N)=O, the IC50 [9] was > 67.6 µM (inactive), the CC50 [10] was 16.6 µM (active) and the IC50 (HEK293 [11]) was > 67.6 µM (inactive).
With CCCCN(C)C(=O)Cn1nc(Cc2ccncc2)c2ccccc2c1=O the IC50 [9] was > 67.5 µM (inactive) and the IC50 (HEK293 [11]) was > 67.5 µM (inactive).
In the case of CC(OC(=O)c1c2c(nc3ccccc13)/C(=C\c1ccc3c(c1)OCO3)CCC2)C(=O)Nc1ccc(S(N)(=O)=O)cc1 (centres undefined), the EC50 (Insulin-degrading enzyme [4]) is reported as > 54.7 µM (inactive), the EC50 (Insulin-degrading enzyme [5]) is reported as > 54.7 µM (inactive) and the EC50 (HEK293 [6]) is reported as > 54.7 µM (inactive). The IC50 (HEK293 [7]) was > 89.2 µM (inactive).
With O=C(NC1(Cc2ccc(O)cc2)CCCCC1)c1ccccc1 the EC50 [8] was 7.42 µM (active).
For CC(=O)c1ccc2c(c1)c(C#N)c1ccccc1[n+]2[O-], the IC50 [12] was 88.8 µM (active).
